ChEMBL document CHEMBL1126932, “Mechanism-based inhibitors of prostaglandin omega-hydroxylase: (R)- and (S)-12-hydroxy-16-heptadecynoic acid and 2,2-dimethyl-12-hydroxy-16-heptadecynoic acid” (J Med Chem, 1993)

Target: T1, Cytochrome P450 4A4 (Oryctolagus cuniculus, UniProt P10611)
T1 sequence (P10611 whole entry): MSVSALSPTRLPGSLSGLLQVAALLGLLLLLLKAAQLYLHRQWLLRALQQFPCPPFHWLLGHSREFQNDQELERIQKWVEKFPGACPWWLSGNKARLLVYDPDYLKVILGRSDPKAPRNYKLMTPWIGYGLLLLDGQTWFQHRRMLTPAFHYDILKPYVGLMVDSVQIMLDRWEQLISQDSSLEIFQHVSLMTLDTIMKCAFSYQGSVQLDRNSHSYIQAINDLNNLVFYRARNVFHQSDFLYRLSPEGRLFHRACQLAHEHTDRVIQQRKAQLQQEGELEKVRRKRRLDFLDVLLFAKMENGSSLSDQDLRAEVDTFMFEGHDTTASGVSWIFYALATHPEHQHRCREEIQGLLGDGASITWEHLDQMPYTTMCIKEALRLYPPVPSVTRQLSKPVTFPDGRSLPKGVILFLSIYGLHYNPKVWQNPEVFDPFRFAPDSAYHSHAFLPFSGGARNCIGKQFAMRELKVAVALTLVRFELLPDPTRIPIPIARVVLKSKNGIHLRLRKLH
Assay: Inactivation of prostaglandin E1 omega-hydroxylase (Cytochrome P450 4A4) in rabbit lung
Type: tissue-based

Row | Structure (SMILES) | Ki [µM]
1 | C#CCCC[C@@H](O)CCCCCCCCCCC(=O)O | 1.8
2 | C#CCCCC(O)CCCCCCCCCC(C)(C)C(=O)O (centres undefined) | 4.9
3 | C#CCCC[C@H](O)CCCCCCCCCCC(=O)O | 3.6
4 | C#CCCCC(O)CCCCCCCCCCC(=O)O (racemic) | 4.8
